Source: US8361715B2, “Method for suppressing a FRET signal, FRET signal suppressor agents and use in a method for multiplexing biological events” (CIS Bio International, priority 2006, dated 2013)

How the values were obtained:
[1] = tested on: trisbipyridine cryptate TBP; settings: TBP donor, d2 acceptor; 20 mM; incubation 16 h at ambient temperature
Protocol: Two identical experiments aimed at detecting a GST-biotin protein were carried out. In each of the experiments, a particular rare earth complex was used as FRET donor: either the trisbipyridine cryptate TBP or a terbium chelate sold in a form conjugated to an anti-GST antibody by the company Invitrogen (Cat no. PV3568).
The biotinylated GST protein was dispensed into a 96-well plate. Its presence was detected by FRET between the donor (the TBP or the terbium chelate) (carried by an anti-GST antibody) and the d2 acceptor (carried by streptavidin), after incubation for 16 h at ambient temperature in the presence or absence of 20 mM of manganese chloride (MnCl2) or of EDTA. A time-resolved fluorescence measurement is carried out (td=50 μs, tg=400 μs) at 620 nm and 665 nm (respectively E620 and E665) on a Rubystar® machine (BMG Labtech). Based on the fluorescence intensity values, E620 and E665, the E665/E620 intensity ratio is calculated and multiplied by 10 000 for greater convenience. […] In order to compare the delta F values obtained in the various media for the same donor, said values are normalized relative to the delta F obtained in buffer (100%).

[2] = tested on: pyridine-bis(bipyridine) cryptate PBP4COOH; experiment: FRET between PBP4COOH donor and d2 acceptor (biotinylated GST detection) with uric acid; settings: PBP4COOH donor, 60 μM, incubation 16 h at ambient temperature
Protocol: (§1) In each of the experiments, a particular rare earth complex was used as FRET donor: either the trisbipyridine cryptate TBP or a pyridine-bis(bipyridine) cryptate PBP4COOH of formula: […]
(§2) Its presence was detected via FRET between the donor (the TBP or PBP4COOH) (carried by the anti-GST antibody) and the d2 acceptor (carried by streptavidin), after incubation for 16 h at ambient temperature in the presence or absence of 60 μM of uric acid. A time-resolved fluorescence measurement (td=50 μs, tg=400 μs) is carried out at 620 nm and 665 nm (E620 and E665, respectively) on a Rubystar® machine (BMG Labtech).
(§3) • 1.25 nM biotinylated GST; 2 nM anti-GST; 5 nM streptavidin; • 60 μm uric acid. Final reaction volume: 200 μl Buffer: 100 mM phosphate, pH 7.0, 0.10% BSA. Results

europium cryptate TBP = experiment: FRET between TBP donor and d2 acceptor (biotinylated GST detection) with uric acid; settings: TBP donor, 60 μM, incubation 16 h at ambient temperature
Protocol: as §1, §2, §3

manganese chloride [MnCl2]
FRET signal (normalized delta F) [1]: does not modify

O=c1[nH]c(=O)c2[nH]c(=O)[nH]c2[nH]1 [uric acid]
FRET signal (normalized delta F) [2]: does not modify
FRET signal inhibited (europium cryptate TBP): more than 85%

O=C(O)CN(CCN(CC(=O)O)CC(=O)O)CC(=O)O [EDTA]
FRET signal (normalized delta F) [1]: does not modify
